US20230008368A1, “IMIDAZOQUINOLINE SUBSTITUTED PHOSPHORIC ESTER AGONIST, AND PREPARATION THEREFOR AND APPLICATION THEREOF” (SUZHOU ZELGEN BIOPHARMACEUTICALS CO., LTD., priority 2019, published 2023)
Read-outs that look alike come from different tables or passages of the source.

Key:
hTLR7 = target: T1, hTLR7 (Homo sapiens, UniProt Q9NYK1); assay: agonistic activity on hTLR7, HEK-Blue hTLR cells, SEAP reporter (QUANTI-Blue); format: cell-based; conditions: for TLR 7 selectivity TLR 8/TLR 7: ratio of TLR 8 EC50 to TLR 7 EC50
T1 construct: expressed in transfected cells; host or cells: HEK-Blue hTLR cells
T1 sequence (Q9NYK1 27-1049): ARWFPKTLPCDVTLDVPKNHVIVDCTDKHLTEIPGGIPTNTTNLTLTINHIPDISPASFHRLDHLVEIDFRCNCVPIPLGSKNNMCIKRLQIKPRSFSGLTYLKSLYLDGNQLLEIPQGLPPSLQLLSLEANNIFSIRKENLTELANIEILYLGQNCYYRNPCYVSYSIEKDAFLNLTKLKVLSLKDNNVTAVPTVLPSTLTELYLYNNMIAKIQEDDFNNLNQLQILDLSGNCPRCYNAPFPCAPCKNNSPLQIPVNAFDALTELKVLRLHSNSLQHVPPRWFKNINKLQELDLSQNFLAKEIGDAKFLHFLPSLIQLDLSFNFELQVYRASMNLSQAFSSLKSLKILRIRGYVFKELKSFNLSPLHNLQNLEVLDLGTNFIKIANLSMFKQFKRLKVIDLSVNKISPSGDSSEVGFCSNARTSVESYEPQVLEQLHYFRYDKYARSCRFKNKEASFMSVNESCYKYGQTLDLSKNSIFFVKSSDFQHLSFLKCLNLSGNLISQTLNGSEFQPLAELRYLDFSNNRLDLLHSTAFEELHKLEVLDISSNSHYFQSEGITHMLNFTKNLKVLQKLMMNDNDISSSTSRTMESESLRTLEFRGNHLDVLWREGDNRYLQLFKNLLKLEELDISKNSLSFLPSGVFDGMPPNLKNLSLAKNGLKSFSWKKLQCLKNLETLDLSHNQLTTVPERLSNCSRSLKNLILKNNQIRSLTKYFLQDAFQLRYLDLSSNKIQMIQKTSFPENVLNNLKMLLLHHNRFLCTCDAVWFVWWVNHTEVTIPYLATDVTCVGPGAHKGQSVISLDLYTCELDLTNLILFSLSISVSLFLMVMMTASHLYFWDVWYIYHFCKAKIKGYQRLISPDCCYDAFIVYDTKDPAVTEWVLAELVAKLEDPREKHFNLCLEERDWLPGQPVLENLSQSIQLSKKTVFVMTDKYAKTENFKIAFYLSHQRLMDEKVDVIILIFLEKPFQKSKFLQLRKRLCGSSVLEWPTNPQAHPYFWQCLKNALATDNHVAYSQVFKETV
Description: (§1) Experiments on the agonistic activity of TLR7 and TLR8 by the compounds in vitro
(§2) The compound was diluted with 1:3 series with DMSO for 9 concentration points, duplicated wells, and added to 96-well plate with Echo.
(§3) The HEK-Blue™ hTLR cells were suspended in the culture medium and then seeded into a 96-well plate containing the compound at a density of 50,000 cells/well. Cells were cultured at 5% CO2 and 37° C. for 1 day. The final concentration of DMSO in the cell culture medium was 0.5%.
(§4) 20 uL cell culture supernatant was taken, according to the QUANTI-Blue instructions, the reporter gene SEAP in the supernatant was detected, and the OD650 signal value was read with a microplate reader to calculate the agonist activity of the compound on the hTLR7 and hTLR8.
(§5) The EC50 and CC50 values of the compound were calculated by GraphPad Prism software, and the fitting curve was plotted.

hTLR8 = target: T2, hTLR8 (Homo sapiens, UniProt Q9NR97); assay: agonistic activity on hTLR8, HEK-Blue hTLR cells, SEAP reporter (QUANTI-Blue); format: cell-based; conditions: for EC50: SEAP reporter, OD650, cultured 1 day; for TLR 8 selectivity TLR 7/TLR 8: ratio of TLR 7 EC50 to TLR 8 EC50
T2 construct: expressed in transfected cells; host or cells: HEK-Blue hTLR cells
T2 sequence (Q9NR97 27-1041): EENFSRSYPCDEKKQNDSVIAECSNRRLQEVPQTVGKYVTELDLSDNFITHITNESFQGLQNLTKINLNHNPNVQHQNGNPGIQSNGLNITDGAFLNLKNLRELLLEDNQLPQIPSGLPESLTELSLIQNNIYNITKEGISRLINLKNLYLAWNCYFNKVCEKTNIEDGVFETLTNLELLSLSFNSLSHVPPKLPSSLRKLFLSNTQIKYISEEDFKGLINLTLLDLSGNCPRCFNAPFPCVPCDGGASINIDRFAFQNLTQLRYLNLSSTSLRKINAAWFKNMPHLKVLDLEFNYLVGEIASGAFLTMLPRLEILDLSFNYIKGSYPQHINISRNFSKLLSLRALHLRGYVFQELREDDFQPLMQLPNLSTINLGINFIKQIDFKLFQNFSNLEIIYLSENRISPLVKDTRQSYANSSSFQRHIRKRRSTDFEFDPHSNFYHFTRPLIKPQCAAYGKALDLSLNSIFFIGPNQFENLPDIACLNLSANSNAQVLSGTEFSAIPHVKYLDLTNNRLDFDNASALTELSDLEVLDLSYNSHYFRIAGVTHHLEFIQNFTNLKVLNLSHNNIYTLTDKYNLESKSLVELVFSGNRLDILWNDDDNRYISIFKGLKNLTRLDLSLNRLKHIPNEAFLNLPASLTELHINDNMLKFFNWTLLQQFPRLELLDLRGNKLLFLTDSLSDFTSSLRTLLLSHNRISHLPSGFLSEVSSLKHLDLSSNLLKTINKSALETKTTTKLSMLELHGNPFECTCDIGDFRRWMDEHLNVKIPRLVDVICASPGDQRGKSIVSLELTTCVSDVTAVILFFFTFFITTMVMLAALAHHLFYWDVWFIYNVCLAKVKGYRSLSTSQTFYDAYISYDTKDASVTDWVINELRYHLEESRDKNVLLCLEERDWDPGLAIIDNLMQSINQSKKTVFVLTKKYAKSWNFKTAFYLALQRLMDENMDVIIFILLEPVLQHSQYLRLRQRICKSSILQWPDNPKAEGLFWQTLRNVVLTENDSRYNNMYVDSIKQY
Description: as §1, §2, §3, §4, §5

[1] = cytotoxicity, cell viability by CellTiter-Glo; format: cell-based, human; conditions: human, HEK-Blue hTLR cells, cultured 1 day
Description: as §2, §3
(§6) According to the CellTiter-Glo instructions, the cell viability was measured, and the Luminescence signal value was read by the microplate reader, which was used to calculate the cytotoxicity of the compound.
as §5

HEK-Blue™ hTLR cells = assay: cytotoxicity, cell viability by CellTiter-Glo; format: cell-based, human; conditions: cultured 1 day
Description: as §2, §3, §6, §5

[2] = HEK-Blue hTLR cells, SEAP reporter, OD650, cultured 1 day, read-out: TLR 7 EC50
[3] = HEK-Blue hTLR cells, read-out: TLR 8 EC50
[4] = TLR 8 EC50, HEK-Blue hTLR cells

TLR 7 selectivity TLR 8/TLR 7 (hTLR7)	Compound	EC50 (hTLR7; [2]) [µM]	EC50 (hTLR8; [3]) [µM]	CC50 at 1 day [1] [µM]	EC50 (hTLR7) [µM]	EC50 (hTLR8; [4]) [µM]	TLR 8 selectivity TLR 7/TLR 8 (hTLR8)	CC50 (HEK-Blue™ hTLR cells) [µM]
2.8	CCOCc1nc2c(N)nc3ccccc3c2n1C[C@@H](C)O (single isomer, unassigned) [Example 1B]	1.27	3.6	> 30	–	–	–	–
–	CCOCc1nc2c(N)nc3ccccc3c2n1C[C@@H](C)O[P@@](=O)(N[C@@H](C)C(=O)OC(C)C)Oc1ccccc1 (single isomer, unassigned) [Example 2A]	–	–	> 30	2.8	0.881	3.2	–
–	CCOCc1nc2c(N)nc3ccccc3c2n1C[C@H](C)O[P@@](=O)(N[C@@H](C)C(=O)OC(C)C)Oc1ccccc1 (single isomer, unassigned) [Example 2B]	–	–	> 30	3.03	0.077	39.4	–
–	CCOCc1nc2c(N)nc3ccccc3c2n1C[C@@H](C)O[P@](=O)(N[C@@H](C)C(=O)OC(C)C)Oc1ccccc1 (single isomer, unassigned) [Example 3A]	> 30	9.08	> 30	–	–	>3.3	–
–	CCOCc1nc2c(N)nc3ccccc3c2n1C[C@H](C)O[P@](=O)(N[C@@H](C)C(=O)OC(C)C)Oc1ccccc1 (single isomer, unassigned) [Example 3B]	3.61	1.86	> 30	–	–	1.9	–
–	CCOCc1nc2c(N)nc3ccccc3c2n1C[C@@H](C)O[P@@](=O)(N[C@@H](C)C(=O)OC(C)C)Oc1cccc2ccccc12 (single isomer, unassigned) [Example 5A]	> 10	0.0092	17.9	–	–	>1086	–
–	CCOCc1nc2c(N)nc3ccccc3c2n1C[C@@H](C)OP(=O)(N[C@@H](C)C(=O)OC(C)C)Oc1cccc2ccccc12 (single isomer, unassigned) [Example 5B]	–	0.017	–	–	–	–	> 30
–	CCOCc1nc2c(N)nc3ccccc3c2n1C[C@@H](C)O[P@@](=O)(N[C@@H](C)C(=O)OC(C)C)Oc1ccc2ccccc2c1 (single isomer, unassigned) [Example 6A]	7.29	0.0056	> 30	–	–	1301	–
–	CCOCc1nc2c(N)nc3ccccc3c2n1C[C@@H](C)O[P@@](=O)(N[C@@H](C)C(=O)OC(C)C)Oc1ccc(C)cc1 (single isomer, unassigned) [Example 9A]	9.5	0.0079	> 30	–	–	1202	–
–	CCOCc1nc2c(N)nc3ccccc3c2n1C[C@@H](C)O[P@@](=O)(N[C@@H](C)C(=O)OC(C)C)Oc1cccc(Cl)c1 (single isomer, unassigned) [Example 11A]	5.83	0.0091	> 30	–	–	640	–
–	CCOCc1nc2c(N)nc3ccccc3c2n1C[C@@H](C)O[P@@](=O)(N[C@@H](C)C(=O)OC(C)C)Oc1ccc(Cl)cc1 (single isomer, unassigned) [Example 12A]	6.07	0.0035	> 30	–	–	1735	–
–	CCOCc1nc2c(N)nc3ccccc3c2n1C[C@@H](C)O[P@@](=O)(N[C@@H](C)C(=O)OC(C)(C)C)Oc1ccccc1 (single isomer, unassigned) [Example 14A]	15.8	0.366	> 30	–	–	43	–
–	CCOCc1nc2c(N)nc3ccccc3c2n1C[C@@H](C)O[P@@](=O)(N[C@@H](C)C(=O)OCc1ccccc1)Oc1ccccc1 (single isomer, unassigned) [Example 16A]	5.83	0.0354	> 30	–	–	165	–
–	CCOCc1nc2c(N)nc3ccccc3c2n1C[C@@H](C)O[P@@](=O)(N[C@@H](C)C(=O)OC(C)(C)C)Oc1ccc(C)cc1 (single isomer, unassigned) [Example 17A]	> 30	0.133	> 30	–	–	>226	–
–	CCOCc1nc2c(N)nc3ccccc3c2n1C[C@@H](C)O[P@@](=O)(N[C@@H](C)C(=O)OC(C)(C)C)Oc1ccc(OC)cc1 (single isomer, unassigned) [Example 18A]	> 30	0.203	> 30	–	–	>148	–
–	CCOCc1nc2c(N)nc3ccccc3c2n1C[C@@H](C)O[P@@](=O)(N[C@@H](C)C(=O)OC(C)(C)C)Oc1ccc(Cl)cc1 (single isomer, unassigned) [Example 19A]	> 30	0.0585	> 30	–	–	>513	–
2.5	CCOCc1nc2c(N)nc3ccccc3c2n1C[C@H](C)O [Example 1A]	0.44	1.08	> 30	–	–	–	–

Compound	TLR 7 selectivity TLR 8/TLR 7 (hTLR7)	EC50 (hTLR7; [2]) [µM]	EC50 (hTLR8; [3]) [µM]	CC50 at 1 day [1] [µM]	EC50 (hTLR7) [µM]	EC50 (hTLR8; [4]) [µM]	TLR 8 selectivity TLR 7/TLR 8 (hTLR8)	CC50 (HEK-Blue™ hTLR cells) [µM]
CCOCc1nc2c(N)nc3ccccc3c2n1CC(C)O (stereo not shown) [Example 1]	2.4	0.666	1.59	> 30	–	–	–	–
